Laboratory results published in patent publication US8748369B2, “Use of targeted nitroxide agents in bone healing” (University of Pittsburgh-Of the Commonwealth System of …, priority 2009, dated 2014).
Where a SMILES comes first, the peptide text is derived from it. [ ]: non-standard residue; d: D form. The star is where a group is joined. NH(TEMPO-4-yl) = CC1(C)CC(N*)CC(C)(C)N1[O]; Orn = NCCC[C@H](N)C(=O)O; Cbz = O=C(OCc1ccccc1)*; Boc = CC(C)(C)OC(=O)*

Columns and labels:
[1] = system: KM101 human marrow stromal cells; experiment: Irradiation survival curves of KM101 cells; format: cell-based
Experimental: KM101 cells were incubated in media alone or in JP4-039 (10 μM) for one hour before irradiation or 24 hours after irradiation. The cells were irradiated to doses ranging from 0 to 6 Gy and plated in 4 well plates. Seven days later the cells were stained with crystal violet and colonies of greater than 50 cells counted. Cells incubated in JP4-039 either before or after irradiation were more radioresistant as shown by an increased shoulder of n=2.3±0.2 or 2.2±0.2, respectively compared to n of 1.1±0.1for the KM101 cells (p=0.0309 or 0.0386, respectively).

NOD/SCID mice = experiment: Proposed: human marrow stromal cell seeding into irradiated limbs of NOD/SCID mice; format: in vivo, mouse; conditions: MnSOD-PL prior to cell infusion; JP4-039 daily after cell transplantation
Source text: The following can be used to select and optimize the best GS-nitroxide JP4-039 (radiation damage mitigator drug) that can enhance human bone marrow stromal cell and fresh human stromal cell line seeding efficiency into irradiated limbs of NOD/SCID mice. MnSOD-overexpressing cells are a positive control.
A. Experiments with KM101-MnSOD/ds-red (control KM101-ds-red) clonal cell lines. Groups of 12 NOD/SCID mice receive 300 cGy total body irradiation (low dose leg) and a 1000 cGy boost to the left hind leg (high dose leg), then 24 hours later intravenous injection of 1×10^5 or 1×10^6 cells of each cell line (groups 1 and 2). Group 3 is mice that receive MnSOD-PL intravenously 24 hours prior to irradiation and then injection of KM101-MnSOD/ds-red. […] This experiment may be conducted essentially as described above (A), with all groups, but with a sub-group receiving JP4-039 (24 hours) after radiation (same day as cell lines are injected, or a sub-group receiving intraperitoneal JP4-039 (daily or weekly after cell line transplantation). Cells may be explanted from the high dose and low dose irradiated femurs at days 7, 14, 21, and cultured in vitro for human stromal colony forming progenitor cells (CFU-F). The percent and total number of human cells entering the high dose and low dose irradiated limbs can be quantitated by cell sorting for ds-red. […]

[2] = log octanal/water (Ko/w) partition coefficient; format: physicochemical
Source text: A practical skin patch is planned for delivery of JP4-039 or other compounds delivered herein. The patch can be administered to a subject before, during or after exposure to radiation, including 24 hr or later after irradiation exposure of the subject. In preliminary studies, we sought to characterize the absorption/penetration of a topically applied representative GS-Nitroxide XJB-5-125 in mouse skin. XJB-5-125 was selected as a potential topical agent based on its ability to inhibit ROS generation, inhibit apoptosis and suppress oxidative damage to mitochondrial lipids. […] The physical properties of a chemical are critical to its ability to penetrate into and through the skin. Two important factors are the log octanal/water (Ko/w) partition coefficient and the molecular weight. For XJB-5-125, the log Ko/w=4.5 and molecular weight is 956. The lipophilicity “rule” is based on the need for a compound to partition out of the lipophilic stratum corneum and into the more hydrophilic epidermis and dermis.

SMILES	n (shoulder on the survival curve) ([1]; 10 μM 24 hours after irradiation)	change in Do ([1]; 10 μM before or after irradiation)	n (shoulder on the survival curve) ([1]; 10 μM one hour before irradiation)	engraftment of KM101 stromal cell lines (NOD/SCID mice)	log Ko/w [2]
CC(C)C[C@@H](/C=C/CC(=O)NC1CC(C)(C)N([O])C(C)(C)C1)NC(=O)OC(C)(C)C [JP4-039, (S,E)-5-(tert-Butoxycarbonylamino)-7-methyloct-3-enoic acid-TEMPO]	2.2±0.2	no significant change	2.3±0.2	facilitate improved stability of engraftment	
CC(C)C[C@H](NC(=O)OC(C)(C)C)C(=O)N[C@H](Cc1ccccc1)C(=O)N1CCC[C@H]1C(=O)N[C@H](C(=O)N[C@@H](CCCNC(=O)OCc1ccccc1)C(=O)NC1CC(C)(C)N([O])C(C)(C)C1)C(C)C [XJB-5-125] (Boc-L[dF]PV[Orn](Cbz)-{NH(TEMPO-4-yl)})					4.5
